Values quoted from earlier work, collected in PubChem BioAssay AID1259409 (Chemical Carcinogenesis Research Information System (CCRIS), 2018).
Where “and” joins values, the source holds several entries; their conditions need not be identical. Equal values may be shown once.

Test system: rodent chemically induced tumor inhibition, incidence and multiplicity
Assay: CCRIS tumor inhibitor studies

Compound: S=C=NCc1ccccc1
- tumour outcome (control, treated, inhibition, significance) (Carcinogen: 1,2-DIMETHYLHYDRAZINE, 540-73-8, Dose [Inhibitor]: 1.25 MG/G IN DIET FOR 17 WK (STUDY DURATION: 36 WK), Route [Inhibitor]: ORAL, Species: MOUSE, Strain/Sex: CF1/FEMALE, Target Tissue: Type of Lesion: LARGE INTESTINE: TUMOR, Dose [Carcinogen]: 0.7 MG IN 0.2 ML EDTA SOLUTION ADMINISTERED 8 D AFTER INHIBITOR DIET STARTED AND CONTINUED 1/WK FOR 16 WK, Promoter: NONE USED): 9/9 (100%), 14/14 (100%), 0%, not significant
- tumour outcome (control, treated, inhibition, significance) (Carcinogen: 2-AMINO-1-METHYL-6-PHENYLIMIDAZO[4,5-B]PYRIDINE, 105650-23-5, Dose [Inhibitor]: 0, 400 PPM IN HIGH FAT DIET FOR DURATION OF STUDY BEGINNING 1 WK PRIOR TO CARCINOGEN TREATMENT (STUDY DURATION: 31 WK), Route [Inhibitor]: ORAL, Species: RAT, Strain/Sex: SPRAGUE-DAWLEY/FEMALE, Target Tissue: Type of Lesion: MAMMARY GLAND: ADENOCARCINOMA, Dose [Carcinogen]: 100 MG/KG BW 1/2 D FOR 16 D, Promoter: NONE USED): 23/31 (74%), 20/32 (63%), 15%, not significant
- tumour outcome (control, treated, inhibition, significance) (Carcinogen: 4-(METHYLNITROSAMINO)-1-(3-PYRIDYL)-1-BUTANONE [64091-91-4], BENZO[A]PYRENE [50-32-8], Dose [Inhibitor]: 1 UMOL/G IN DIET FOR 10 WK BEGINNING 1 WK PRIOR TO FIRST CARCINOGEN DOSE (STUDY DURATION: 28 WK), Route [Inhibitor]: ORAL, Species: MOUSE, Strain/Sex: A/J/FEMALE, Target Tissue: Type of Lesion: LUNG: TUMOR, Dose [Carcinogen]: 3 UMOL BAP + 3 UMOL NNK IN 0.1 ML COTTONSEED OIL 1X/WK FOR 8 WK (STUDY DURATION: 28 WK), Promoter: NONE): 100%, 100%, 0%, not calculated
- tumour outcome (control, treated, inhibition, significance) (Carcinogen: 4-(METHYLNITROSAMINO)-1-(3-PYRIDYL)-1-BUTANONE [64091-91-4], BENZO[A]PYRENE [50-32-8], Dose [Inhibitor]: 6 UMOL IN 0.1 ML COTTONSEED OIL 1/WK FOR 8 WK 2 HR PRIOR TO EACH CARCINOGEN DOSE (STUDY DURATION: 16 WK), Route [Inhibitor]: GAVAGE, Species: MOUSE, Strain/Sex: A/J/FEMALE, Target Tissue: Type of Lesion: LUNG: TUMOR, Dose [Carcinogen]: 3 UMOL BAP + 3 UMOL NNK IN 0.1 ML COTTONSEED OIL 1X/WK FOR 8 WK (STUDY DURATION: 16 WK), Promoter: NONE): 100%, 100%, 0%, not calculated
- tumour outcome (control, treated, inhibition, significance) (Carcinogen: 4-(METHYLNITROSAMINO)-1-(3-PYRIDYL)-1-BUTANONE, 64091-91-4, Dose [Inhibitor]: 0, 1 UMOL/G DIET FOR 15 WK BEGINNING 1 WK POST CARCINOGEN DOSE (STUDY DURATION: 16 WK), Route [Inhibitor]: ORAL, Species: MOUSE, Strain/Sex: STRAIN-A/FEMALE, Target Tissue: Type of Lesion: LUNG: ADENOMA, Dose [Carcinogen]: 10 UMOL ONCE, Promoter: NONE USED): 100%, 100%, 0%, not significant
- tumour outcome (control, treated, inhibition, significance) (Carcinogen: 4-(METHYLNITROSAMINO)-1-(3-PYRIDYL)-1-BUTANONE, 64091-91-4, Dose [Inhibitor]: 0, 3 UMOL/G DIET FOR 15 WK BEGINNING 1 WK POST CARCINOGEN DOSE (STUDY DURATION: 16 WK), Route [Inhibitor]: ORAL, Species: MOUSE, Strain/Sex: STRAIN-A/FEMALE, Target Tissue: Type of Lesion: LUNG: ADENOMA, Dose [Carcinogen]: 10 UMOL ONCE, Promoter: NONE USED): 100%, 100%, 0%, not significant
- tumour outcome (control, treated, inhibition, significance) (Carcinogen: 4-(METHYLNITROSAMINO)-1-(3-PYRIDYL)-1-BUTANONE, 64091-91-4, Dose [Inhibitor]: 0, 5 UMOL 1/D FOR 4 D ADMINISTERED PRIOR TO CARCINOGEN DOSE (STUDY DURATION: 116 D), Route [Inhibitor]: GAVAGE, Species: MOUSE, Strain/Sex: STRAIN-A, Target Tissue: Type of Lesion: LUNG: ADENOMA, Dose [Carcinogen]: 10 UMOL IN SALINE ADMINISTERED 2 HR POST LAST AGENT DOSE, Promoter: NONE USED): 100%, 100%, 0%
- tumour outcome (control, treated, inhibition, significance) (Carcinogen: 4-(METHYLNITROSAMINO)-1-(3-PYRIDYL)-1-BUTANONE, 64091-91-4, Dose [Inhibitor]: 0, 5 UMOL/D FOR 4 CONSECUTIVE DAYS (STUDY DURATION: 17 WK), Route [Inhibitor]: GAVAGE, Species: MOUSE, Strain/Sex: STRAIN-A/FEMALE, Target Tissue: Type of Lesion: LUNG: ADENOMA, Dose [Carcinogen]: 10 UMOL ONCE 2 HR POST LAST AGENT DOSE, Promoter: NONE USED): 100%, 100%, 0%, not significant
- tumour outcome (control, treated, inhibition, significance) (Carcinogen: 4-(METHYLNITROSAMINO)-1-(3-PYRIDYL)-1-BUTANONE, 64091-91-4, Dose [Inhibitor]: 5 UMOL/D FOR 4 CONSECUTIVE DAYS (STUDY DURATION: 16 WK), Route [Inhibitor]: GAVAGE, Species: MOUSE, Strain/Sex: STRAIN-A/FEMALE, Target Tissue: Type of Lesion: LUNG: ADENOMA, Dose [Carcinogen]: 10 UMOL ONCE 2 HR POST LAST AGENT DOSE, Promoter: NONE USED): 30/30 (100%), 30/30 (100%), 0%
- tumour outcome (control, treated, inhibition, significance) (Carcinogen: 4-(N-NITROSOMETHYLAMINO)-1-(3-PYRIDYL)-1-BUTANONE, 64091-91-4, Dose [Inhibitor]: 0, 5 UMOL/D FOR 4 CONSECUTIVE DAYS (STUDY DURATION: 16.5 WK), Route [Inhibitor]: GAVAGE, Species: MOUSE, Strain/Sex: STRAIN-A/FEMALE, Target Tissue: Type of Lesion: LUNG: ADENOMA, Dose [Carcinogen]: 10 UMOL ONCE 2 HR POST LAST AGENT DOSE, Promoter: NONE USED): 100%, 100%, 0%, not significant
- tumour outcome (control, treated, inhibition, significance) (Carcinogen: 4-METHYLNITROSAMINO)-1-(3-PYRIDYL)-1-BUTANONE, 64091-91-4, Dose [Inhibitor]: 0, 5 UMOL 1/D FOR 4 D ADMINISTERED PRIOR TO CARCINOGEN TREATMENT (STUDY DURATION: 116 D), Route [Inhibitor]: GAVAGE, Species: MOUSE, Strain/Sex: STRAIN A, Target Tissue: Type of Lesion: LUNG: ADENOMA, Dose [Carcinogen]: 10 UMOL ONCE 2 HR AFTER FINAL DOSE OF INHIBITOR, Promoter: NONE USED): 100%, 100%, 0%, not significant
- tumour outcome (control, treated, inhibition, significance) (Carcinogen: 7,12-DIMETHYLBENZ[A]ANTHRACENE, 57-97-6, Dose [Inhibitor]: 0.017 MMOL/G IN DIET BEGINNING 1 WK AFTER CARCINOGEN ADMINISTRATION (STUDY DURATION: 28 WK), Route [Inhibitor]: ORAL, Species: RAT, Strain/Sex: SPRAGUE-DAWLEY/FEMALE, Target Tissue: Type of Lesion: MAMMARY GLAND: TUMOR, Dose [Carcinogen]: 12 MG DMBA IN 1.0 ML OLIVE OIL ONCE, Promoter: NONE USED): 100%, 63%, 37%, p<0.001
- tumour outcome (control, treated, inhibition, significance) (Carcinogen: 7,12-DIMETHYLBENZ[A]ANTHRACENE, 57-97-6, Dose [Inhibitor]: 5.0 MG/G DIET AT AGE 9 WK SIMULTANEOUSLY WITH CARCINOGEN, 3/WK FOR 4 WK (STUDY DURATION: 20 WK), Route [Inhibitor]: ORAL, Species: MOUSE, Strain/Sex: ICR/FEMALE, Target Tissue: Type of Lesion: LUNG: ADENOMA, Dose [Carcinogen]: 0.05 MG/G DIET AT AGE 9 WK, 3/WK FOR 4 WK, Promoter: NONE USED): 95%, 93%, 2%, not significant
- tumour outcome (control, treated, inhibition, significance) (Carcinogen: 7,12-DIMETHYLBENZ[A]ANTHRACENE, 57-97-6, Dose [Inhibitor]: 5 MG/G DIET AT AGE 9 WK SIMULTANEOUSLY WITH CARCINOGEN, 3/WK FOR 6 WK (STUDY DURATION: 20 WK), Route [Inhibitor]: ORAL, Species: MOUSE, Strain/Sex: ICR/FEMALE, Target Tissue: Type of Lesion: FORESTOMACH: TUMOR, Dose [Carcinogen]: 0.05 MG/G DIET AT AGE 9 WK, 3/WK FOR 4 WK, Promoter: NONE USED): 87%, 5%, 94%, p<0.01
- tumour outcome (control, treated, inhibition, significance) (Carcinogen: 7,12-DIMETHYLBENZ[A]ANTHRACENE, 57-97-6, Dose [Inhibitor]: 25 MG ONCE 2 HR BEFORE DMBA TREATMENT (STUDY DURATION: 18 WK), Route [Inhibitor]: INTRAGASTRIC, Species: RAT, Strain/Sex: SPRAGUE-DAWLEY/FEMALE, Target Tissue: Type of Lesion: MAMMARY GLAND: TUMOR, Dose [Carcinogen]: 12 MG IN 1 ML OLIVE OIL AT AGE 7 WK 2 HR AFTER AGENT TREATMENT, Promoter: NONE USED): 77%, 54%, 30%, not significant
- tumour outcome (control, treated, inhibition, significance) (Carcinogen: 7,12-DIMETHYLBENZ[A]ANTHRACENE, 57-97-6, Dose [Inhibitor]: 25 MG ONCE 4 HR BEFORE DMBA TREATMENT (STUDY DURATION: 18 WK), Route [Inhibitor]: INTRAGASTRIC, Species: RAT, Strain/Sex: SPRAGUE-DAWLEY/FEMALE, Target Tissue: Type of Lesion: MAMMARY GLAND: TUMOR, Dose [Carcinogen]: 12 MG IN 1 ML OLIVE OIL AT AGE 7 WK 4 HR AFTER AGENT TREATMENT, Promoter: NONE USED): 86%, 50%, 42%, p<0.05
- tumour outcome (control, treated, inhibition, significance) (Carcinogen: 7,12-DIMETHYLBENZ[A]ANTHRACENE, 57-97-6, Dose [Inhibitor]: 50 MG ONCE 2 HR BEFORE DMBA TREATMENT (STUDY DURATION: 18 WK), Route [Inhibitor]: INTRAGASTRIC, Species: RAT, Strain/Sex: SPRAGUE-DAWLEY/FEMALE, Target Tissue: Type of Lesion: MAMMARY GLAND: TUMOR, Dose [Carcinogen]: 12 MG IN 1 ML OLIVE OIL AT AGE 7 WK 2 HR AFTER AGENT TREATMENT, Promoter: NONE USED): 77%, 8%, 90%, p<0.001
- tumour outcome (control, treated, inhibition, significance) (Carcinogen: 7,12-DIMETHYLBENZ[A]ANTHRACENE, 57-97-6, Dose [Inhibitor]: 50 MG ONCE 4 HR AFTER DMBA TREATMENT (STUDY DURATION: 18 WK), Route [Inhibitor]: INTRAGASTRIC, Species: RAT, Strain/Sex: SPRAGUE-DAWLEY/FEMALE, Target Tissue: Type of Lesion: MAMMARY GLAND: TUMOR, Dose [Carcinogen]: 12 MG IN 1 ML OLIVE OIL AT AGE 7 WK 4 HR BEFORE AGENT TREATMENT, Promoter: NONE USED): 71%, 62%, 13%, not significant
- tumour outcome (control, treated, inhibition, significance) (Carcinogen: 7,12-DIMETHYLBENZ[A]ANTHRACENE, 57-97-6, Dose [Inhibitor]: 50 MG ONCE 4 HR BEFORE DMBA TREATMENT (STUDY DURATION: 18 WK), Route [Inhibitor]: INTRAGASTRIC, Species: RAT, Strain/Sex: SPRAGUE-DAWLEY/FEMALE, Target Tissue: Type of Lesion: MAMMARY GLAND: TUMOR, Dose [Carcinogen]: 12 MG IN 1 ML OLIVE OIL AT AGE 7 WK 4 HR AFTER AGENT TREATMENT, Promoter: NONE USED): 100%, 21%, 79%, p<0.001 and 85%, 23%, 73%, p<0.01
